Results: PubChem BioAssay AID588780 (Sanford-Burnham Center for Chemical Genomics, 2011)
Active and inactive are the calls of the source.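 How the source made its calls: active means compounds whose fitted half-maximal concentration in the cell-protection dose series is at or below a set limit; inactive means the rest.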

tested on: H9c2 cardiomyocytes, 2-deoxyglucose stress, ATP luminescence, 2 h; test: protection of cardiomyocytes from 2-deoxyglucose injury, dose response, cell-based, 2-deoxyglucose stress, uHTS hits (AID 588780)

Row | SMILES | IC50
1 | Cn1c2ccccc2c2cc(/C=N/NC(=O)c3cc(O)ccc3O)ccc21 | > 79 µM (inactive)
2 | O=c1[nH]nc(CNc2ccc(O)cc2)c2ccccc12 | > 79 µM (inactive)
3 | CCOC(=O)COc1ccc2c3c(c(=O)oc2c1)CCCC3 | > 79 µM (inactive)
4 | CN(CC1COc2ccccc2O1)c1nc(-c2cccnc2)nc2ccccc12 (configuration not stated) | > 79 µM (inactive)
5 | Cc1c(Cl)cnc(NC(=O)COC(=O)c2ccc([N+](=O)[O-])s2)c1Cl | > 79 µM (inactive)
6 | Cc1ccccc1N=Cc1cc2c(cc1[N+](=O)[O-])OCO2 | > 79 µM (inactive)
7 | Cc1nn(-c2ccccc2)c(C)c1/C=N/NC(=O)c1cc(C(C)(C)C)[nH]n1 | 32.1 µM (inactive)
8 | COc1cc(C)cc2oc(=O)c(CC(=O)N3CCN(C(=O)C4COc5ccccc5O4)CC3)c(C)c12 (configuration not stated) | 34.9 µM (inactive)
9 | Cc1onc(-c2ccccc2)c1C(=O)NC(=S)NNC(=O)c1ccccc1O | 37.2 µM (inactive)
10 | N#CC1(NC(=O)COC(=O)Cn2[nH]c(=O)c3ccccc3c2=O)CCCCC1 | > 79 µM (inactive)
11 | CCn1c(=O)c(C(=O)NC(C)c2ccccc2)c(O)c2ccccc21 (configuration not stated) | > 79 µM (inactive)
12 | CC(C)(C)c1nn(-c2ccccc2)c2[nH]c(=O)c(CNCc3ccco3)cc12 | 40.3 µM (inactive)
13 | COc1ccc2o/c(=N/NC(=O)c3cccs3)c(C(N)=O)cc2c1 | 16.3 µM
14 | CN(C)CCNc1ccc(-c2n[nH]c(=O)c3ccccc23)cc1[N+](=O)[O-] | > 79 µM (inactive)
15 | COC(=O)c1cccc(S(=O)(=O)N(Cc2ccco2)Cc2cc3cc(OC)ccc3[nH]c2=O)c1 | > 79 µM (inactive)
16 | Brc1ccc(-c2ccc(/C=N/Nc3nc(N4CCOCC4)nc(N4CCOCC4)n3)o2)cc1 | > 79 µM (inactive)
17 | CCOCCCNC(=O)CCC(=O)NNc1nc2ccccc2c2nc(-c3ccccc3)nn12 | 54 µM (inactive)
18 | COc1ccc2[nH]c(=O)c(CN(CCc3ccccc3)Cc3nnnn3CC3CCCO3)cc2c1 (configuration not stated) | > 79 µM (inactive)
19 | C#CCOc1nc(Nc2cccc([N+](=O)[O-])c2)nc(OCC#C)n1 | > 79 µM (inactive)
20 | CCSc1nnc(N)s1 | > 79 µM (inactive)
21 | Oc1c(Br)cc(Br)cc1C=Nc1ccc2c(c1)OCCO2 | 24.4 µM
22 | O=C(c1cc2nc(-c3ccccc3)cc(-c3ccccc3)n2n1)N1CCN(C(=O)c2ccco2)CC1 | 9.32 µM
23 | COc1cc(C(=O)NCCCNc2nc3cc(C)cc(C)c3cc2C#N)cc(OC)c1OC | 45.6 µM (inactive)
24 | O=C(CCCn1c(SCC(=O)c2ccc(O)c(O)c2)nc2ccccc2c1=O)NCC1CCCO1 (configuration not stated) | 38.7 µM (inactive)
25 | Cc1ncc(CO)c2cc(C(=O)Nc3ccccc3Cl)c(=Nc3cccc(C(N)=O)c3)oc12 | > 79 µM (inactive)

Row | SMILES | IC50
26 | CS(=O)(=O)Nc1ccc(-c2ccc3nccn3c2)cc1 | > 79 µM (inactive)
27 | CCOc1cccc(-c2c(C(=O)N/N=C(\C)c3ccccn3)nnn2-c2nonc2N)c1 | > 79 µM (inactive)
28 | CCOC(=O)C1=C(C)Nc2ccccc2N=C1NC(=O)c1oc2ccccc2c1COC | > 79 µM (inactive)
29 | CC(=O)Nc1cc(C)nn1-c1nc2ccccc2s1 | 18 µM
30 | Nc1nonc1-n1nnc(C(=O)N/N=C/c2ccccn2)c1CNc1ccccc1 | 37.7 µM (inactive)
31 | CCOC(=O)c1ccc(-c2ccc3ncnc(NCc4csc(C)n4)c3c2)o1 | > 79 µM (inactive)
32 | CCc1ccc(NC(=O)CSc2ccc(-c3ccccn3)nn2)cc1 | > 79 µM (inactive)
33 | CC12C=CC(=O)CC1CCC1C2CCC2(C)C(O)C(O)CC12 (configuration not stated) | 12.3 µM
34 | C=C1C(C)C2C(Cc3ccccc3)NC(=O)C23OC(=O)/C=C/C(O)CCCC(C)C/C=C/C3C1O (configuration not stated) | > 79 µM (inactive)
35 | O=C(NCc1n[nH]c(=O)c2ccccc12)C1CC(=O)N(c2ccccc2)C1 (configuration not stated) | 43 µM (inactive)
36 | N#CCCSc1ccccc1NC(=O)c1cc(=O)c2ccccc2o1 | > 79 µM (inactive)
37 | Cn1c(=O)[nH]c(=O)c2c1nc(N(CCO)Cc1ccccc1)n2CCCc1ccccc1 | > 79 µM (inactive)
38 | Cc1sc2nc(SCC(=O)N3CCOCC3)[nH]c(=O)c2c1C | > 79 µM (inactive)
39 | COc1ccccc1NS(=O)(=O)c1ccc2oc(SCC(=O)N3CCNC3=O)nc2c1 | 36.5 µM (inactive)
40 | COC(=O)c1ccc(C(C(=O)NCc2ccccc2)N(Cc2cccs2)C(=O)c2cnccn2)cc1 (configuration not stated) | 14.7 µM
41 | O=C1c2cccnc2Oc2ccc(Cl)cc2N1Cc1ccc(F)cc1 | > 79 µM (inactive)
42 | CSc1nc2ncc3c(n2n1)CC1c2ccccc2CCN1C3=O (configuration not stated) | > 79 µM (inactive)
43 | CCn1c(O)c(/C=N/N=C2CCCCC2)c2cc(C3=NNC(=O)CC3)ccc21 | 12.5 µM
44 | Cn1c(C(=O)NCCc2ccsc2)cc2c(=O)n(C)c3ccccc3c21 | > 79 µM (inactive)
45 | COC(=O)c1[nH]c2cc(OC)c(OC)cc2c1/C=N/Nc1ccccc1 | > 79 µM (inactive)
46 | C[C@H](NC(=O)c1nc[nH]c1C(=O)NCC(=O)OCc1ccccc1)C(=O)OCc1ccccc1 | > 79 µM (inactive)
47 | COc1ccc(-c2cc(C(=O)N3CCN(c4ccccc4)CC3)c3ccccc3n2)cc1OC | > 79 µM (inactive)
48 | COc1ccccc1N1CCN(C(=O)c2ccc3nc(-c4ccco4)c(-c4ccco4)nc3c2)CC1 | 17.6 µM
49 | O=C(NCc1ccco1)C(c1ccccc1)N(C(=O)Cc1cccs1)c1ccccc1F (configuration not stated) | > 79 µM (inactive)
50 | COc1ccc(-c2nn3c(-c4ccco4)nnc3s2)cc1OC | 33.8 µM (inactive)

Row | SMILES | IC50
51 | CCN(CC(=O)Nc1cc(Cl)ccc1C)C(=O)C1CCN(c2ncnc3sc(C)c(C)c23)CC1 | > 79 µM (inactive)
52 | Cc1ccccc1NC(=O)COC(=O)CCc1nc2ccccc2c(=O)[nH]1 | > 79 µM (inactive)
53 | Cc1ccc(-c2n[nH]c(=O)c3ccccc23)cc1S(=O)(=O)NCCN1CCOCC1 | > 79 µM (inactive)
54 | O=Cc1ccc(OCc2cccc(C(F)(F)F)c2)cc1O | 28.1 µM
55 | O=C(CNC(=O)c1nc[nH]c1C(=O)NCC(=O)OCc1ccccc1)OCc1ccccc1 | 39.5 µM (inactive)
56 | CN(CC(=O)Nc1c(Cl)cccc1Cl)C(=O)Cn1[nH]c(=O)c2ccccc2c1=O | > 79 µM (inactive)
57 | O=C(COC(=O)CCc1nc2ccccc2c(=O)[nH]1)Nc1ccc2c(c1)OCO2 | > 79 µM (inactive)
58 | Cc1ccc(-c2n[nH]c(=O)c3ccccc23)cc1S(=O)(=O)NCCO | 39.8 µM (inactive)
59 | Cc1nc2c(c(=O)n1CCC1=CCCCC1)c1nc3ccccc3nc1n2/N=C/c1ccccc1 | 11.7 µM
60 | CC(C)CC(=O)Nc1ccc(C(=O)COC(=O)Cc2n[nH]c(=O)c3ccccc23)cc1 | > 79 µM (inactive)
61 | CC(OC(=O)Cc1n[nH]c(=O)c2ccccc12)C(=O)Nc1ccccc1[N+](=O)[O-] (configuration not stated) | 49.1 µM (inactive)
62 | Cc1nc2ccccc2c2c(N)c3ccccc3n12 | 26.5 µM
63 | CCN(CC)CCNC(=O)CCc1n[nH]c(=O)c2ccccc12 | > 79 µM (inactive)
64 | CCCCn1nc(NC(=O)c2cccs2)c2cc3ccccc3nc21 | 18.2 µM
65 | COc1ccc(/C=C(\C#N)C(=O)c2c(C)[nH]c3ccccc23)cc1OC | > 79 µM (inactive)
66 | O=C(Nc1ccccc1)c1nc[nH]c1C(=O)NCCCCNC(=O)c1[nH]cnc1C(=O)Nc1ccccc1 | > 79 µM (inactive)
67 | N#C/C(=C\c1cn(-c2ccccc2)nc1-c1cccnc1)c1nnc2n1CCCCC2 | 21.7 µM
68 | COc1cccc(Nc2nc3ccccc3n3nnnc23)c1 | 14.6 µM
69 | Cc1cc(Cl)ccc1OCCCC(=O)NNC(=O)c1ccccc1O | > 79 µM (inactive)
70 | Cc1ccc(OCC(=O)Nc2nc(-c3ccccn3)cs2)c(C)c1 | 16.4 µM
71 | Cc1nc2ccccc2c(=O)[nH]1 | > 79 µM (inactive)
72 | CCC(CC)C(=O)Nc1cc(C)c2c(=O)oc3ccccc3c2n1 | > 79 µM (inactive)
73 | O=C(c1ccc(-c2nc3ccccc3s2)o1)N1CCN(c2ccccc2O)CC1 | 12.3 µM
74 | O=S(=O)(c1ccc(Cl)cc1)c1cc(O)ccc1O | > 79 µM (inactive)
75 | Cc1ccc2sc(NNC(=O)c3ccc4c(c3)OCCO4)nc2c1C | > 79 µM (inactive)

Row | SMILES | IC50
76 | COc1ccc(-c2cc(C(=O)NC(C)c3ccccn3)c3ccccc3n2)cc1OC (configuration not stated) | 13 µM
77 | CCCN1Cc2cccc(C(N)=O)c2C1=O | > 79 µM (inactive)
78 | Cc1ccc(S(=O)(=O)N2CCN(C(=O)c3cc(=O)[nH]c4ccccc34)CC2)c(C)c1 | 16.8 µM
79 | N#Cc1ccccc1OCC(=O)Nc1nc(-c2ccccn2)cs1 | > 79 µM (inactive)
80 | CN(CC(=O)Nc1cccc(F)c1)C(=O)Cc1n[nH]c(=O)c2ccccc12 | > 79 µM (inactive)
81 | COc1cc(OC)cc(C(=O)NNC(=O)c2ccccn2)c1 | > 79 µM (inactive)
82 | CCCCn1c(NC(=O)c2ccccc2)nc2ccccc21 | > 79 µM (inactive)
83 | COc1cc2c(C#CCCO)c(-c3ccsc3)oc(=O)c2cc1OC | > 79 µM (inactive)
84 | Nc1ccc(-c2n[nH]c(=O)c3ccccc23)cc1N | > 79 µM (inactive)
85 | Nc1cc2[nH]c(=O)c3ccccc3c2cc1[N+](=O)[O-] | 15.1 µM
86 | Cc1cccc(C(C)C)c1NC(=O)C(C)OC(=O)Cc1n[nH]c(=O)c2ccccc12 (configuration not stated) | > 79 µM (inactive)
87 | O=C(CCc1nc2ccccc2c(=O)[nH]1)N1CCN(S(=O)(=O)c2cccc([N+](=O)[O-])c2)CC1 | > 79 µM (inactive)
88 | COc1ccc(CNn2c(-c3cccs3)nc3ccccc3c2=O)cc1OC | 11.8 µM
89 | c1ccc(-c2nc(-n3ccnc3)nc(-n3ccnc3)n2)cc1 | > 79 µM (inactive)
90 | CCCCC(=O)Nc1cc(C)c2c(=O)oc3ccccc3c2n1 | > 79 µM (inactive)
91 | CN(CC(=O)Nc1cccc(F)c1)C(=O)CCc1nc2ccccc2c(=O)[nH]1 | > 79 µM (inactive)
92 | Fc1ccc(-n2cc(-c3ccccc3)c3c(N4CCOCC4)ncnc32)cc1 | > 79 µM (inactive)
93 | CCCn1c(=O)c2[nH]c(-c3ccc(OCC(=O)Nc4ccc(C#N)cc4)cc3)nc2n(CCC)c1=O | > 79 µM (inactive)
94 | CC1CCN(C(=O)COC(=O)c2n[nH]c(=O)c3ccccc23)CC1 | 47.8 µM (inactive)
95 | Cc1cnc(C=O)c2cccc([N+](=O)[O-])c12 | 44.6 µM (inactive)
96 | COc1ccc(C(=O)COC(=O)Cn2[nH]c(=O)c3ccccc3c2=O)c(OC)c1 | > 79 µM (inactive)
97 | COc1ccc(C(C)=O)cc1COC(=O)Cc1n[nH]c(=O)c2ccccc12 | > 79 µM (inactive)
